Source: US7777038B2, “Carbostyril compound” (Otsuka Pharmaceutical Co., Ltd., priority 2004, dated 2010)

How the values were obtained:
[1] = tested on: human Trefoil Factor 2 (hTFF2) gene; assay: hTFF2 gene reporter assay (luciferase) using pGL3-hTFF2pro•pWL-neo/MKN-45 #6-2 cell line; assay type: cell-based; settings: test compound concentration 10^−6 M; 24 hours culture; luciferase activity as control % of dimethylsulfoxide-added wells (100%)
Description: Transcription promoting activity on human Trefoil Factor 2 (hTFF2) gene of test compounds was evaluated by means of an hTFF2 gene reporter assay.
(1) Preparation of hTFF2 Gene Reporter Vector pGL3-hTFF2pro
DNA was extracted from HeLa cells (CCL-2, DAINIPPON PHARMACEUTICAL CO., LTD.) using a deoxyribonucleic acid (DNA) extraction kit (DNeasy™ Tissue Kit, manufactured by QIAGEN). The hTFF2 promoter region was amplified using the extracted DNA as a template by means of the polymerase chain reaction (PCR). The oligomers 5′-[…]-3′ and 5′-[…]-3′ were selected as PCR primers to be amplified, based on the report by Beck et al. (Beck S., Sommer P., Blin N., Gott P., 5′-flanking motifs control cell-specific expression of trefoil factor genes (TFF), Int. J. Mol. Med. 2(3), 353-361 (1998)). Platinum® Pfx DNA polymerase was used as DNA polymerase. The PCR was performed under the conditions of denaturing for 30 seconds at 95° C., annealing for 30 seconds at 55° C. and extending for 75 seconds at 68° C., and the procedures were repeated for 32 cycles.
The PCR products were separated and purified by 1% agarose gel electrophoresis, and cloned to a pCR-BluntII-TOPO vector attached to a cloning kit (Zero Blunt® TOPO® PCR Cloning Kit, manufactured by Invitrogen Corporation). The produced plasmid pCR-Blunt-TFF2pro was introduced into E. coli for transformation (TOP 10 Ultracomp™ Cells, manufactured by Invitrogen Corporation), and transformant strain pCR-Blunt-TFF2pro/TOP10 was selectively cultured in LB agar medium containing 30 μg/ml of Zeocin (Zeocin, manufactured by Invitrogen Corporation). The pCR-Blunt-TFF2pro/TOP10 was subjected to shaking culture in 50 ml of LB medium containing 30 μg/ml of Zeocin at 37° C. over night, and a plasmid was prepared using a plasmid preparation kit (Concert™ High Purity Midiprep System, manufactured by GIBCO BRL).
The nucleotide sequence of the PCR product cloned to the plasmid pCR-Blunt-TFF2pro was determined. The determined nucleotide sequence was compared with the counterpart of hTFF2 promoter region reported in a gene bank (GenBank accession AB038162). The nucleotide sequence of the MluI-HindIII region cloned in pCR-Blunt-TFF2pro was identical to GenBank accession AB038162 (FIG. 1).
The underlined portions indicate the recognition sequence (ACGCGT) of the restriction enzyme MluI and the recognition sequence (AAGCTT) of the restriction enzyme HindIII. The nucleotide sequences of the MluI-HindIII region are identical between the hTFF2 promoter region reported in GenBank and the PCR product cloned to the plasmid pCR-Blunt-TFF2pro. […]

[2] = tested on: acetic acid-induced gastric ulcers; assay: Healing effects on rat models with acetic acid-induced gastric ulcers; assay type: in vivo; settings: oral, once a day for 8 days, dose 10 mg/kg, ulcerated area vs vehicle (0.5% CMC)
Description: Healing Effects on Rat Models with Acetic Acid-Induced Gastric Ulcers
(1) Production of Gastric Ulcer by Acetic Acid
Rats were fasted from the previous day. A celiotomy was done in each rat under ether anesthesia, and the stomach was exteriorized. Subsequently, 20 μL of a 30% acetic acid solution was injected into the submucosa at the junction of the body of the glandular stomach and the pyloric antrum using a disposable syringe to produce a gastric ulcer.
(2) Test Compound Administration
Each test compound was suspended in a 0.5% carboxymethylcelullose (CMC) solution at concentrations of 0.75 or 2.5 mg/ml. The rats were orally administrated once a day for 8 days starting with the forth day from operation at doses of 3 or 10 mg/kg. A gastric tube and a syringe were used for the oral administration. […]
On the next day the vehicle and the test compound were finally administrated to the rats, the rats were sacrificed by exsanguination under anesthesia with ether, and each stomach was removed. The removed stomachs were fixed in 1% formalin for 15 minutes, dissected along the greater curvature of stomach to expose the ulcer, and the ulcerated area was measured. […]
The ulcerated area was measured under a stereo microscope (10×) with an ocular micrometer (1 mm^2/grid), and the percentage healing ratio was calculated. The percentage healing ratio was calculated by the following formula.

In the case of `COc1ccc(CC2SC(=S)NC2=O)c2c1N(CCC(C)C)C(=O)CC2` (stereo not drawn) [Example 1315, 8-methoxy-1-(3-methylbutyl)-5-(4-oxo-2-thioxothiazolidin-5-ylmethyl)-3,4-dihydro-1H-quinolin-2-one], the “TFF2 Production Promoting Activity” value [1] is reported as “++ (a TFF2 production promoting activity of 1000% or higher at a test compound concentration of 10^−6 M)” and the melting point is reported as 139.5 to 141 °C.
With `COC(=O)c1ccc(CN2C(=O)CCc3c(CC4SC(=O)NC4=O)ccc(OC)c32)cc1` (stereo not drawn) [Example 25, 5-[8-methoxy-1-(4-methoxycarbonylbenzyl)-2-oxo-1,2,3,4-tetrahydroquinolin-5-ylmethyl]thiazolidine-2,4-dione] the “TFF2 Production Promoting Activity” value [1] was “++ (a TFF2 production promoting activity of 1000% or higher at a test compound concentration of 10^−6 M)” and the melting point was 193.1 to 195.5 °C.
In the case of `COc1ccc(CC2SC(=O)NC2=O)c2ccc(=O)n(C)c12` (stereo not drawn) [Example 1, 5-(8-methoxy-1-methyl-2-oxo-1,2-dihydroquinolin-5-ylmethyl)thiazolidine-2,4-dione], the “Healing Ratio (%)” value [2] is reported as greater than 20% and the melting point is reported as 254 to 255 °C.
